{
  "source": "patent US20130267594A1",
  "about": "“PROLYL HYDROXYLASE INHIBITORS AS RADIATION MITIGATORS AND RADIATION PROTECTORS” (priority 2010, published 2013)",
  "key": {"[1]": {"test_system": "MEFs expressing shRNA targeting Hif1α", "experiment": "Clonogenic cell survival assay after ionizing radiation, MEFs with Hif1α silenced", "format": "cell-based, mouse", "conditions": "DMOG 1 mM, FIG. 11A"}, "[2]": {"test_system": "C57BL/6J and Balb/c mice after TBI", "experiment": "Murine total body irradiation (TBI) model, 30 day survival", "format": "in vivo, mouse", "conditions": "8 Gy TBI, DMOG 100 mg/kg ip 4 hrs before, 12 hrs and 36 hrs after TBI, 30 days", "procedure": "Mice (10 per group) were irradiated (8 Gy TBI) and survival monitored over 30 days. DMOG (100 mg/kg) or saline was administered ip 4 hrs before TBI, and 12 hrs and 36 hrs after TBI.\nMice: This study was carried out in strict accordance with the recommendations in the Guide for the Care and Use of Laboratory Animals of the National Institutes of Health. The protocol was reviewed and approved by the Dana-Farber Cancer Institute's Animal Care and Use Committee (Protocol number 06-029). All efforts were made to minimize suffering. Male Balb/c mice were purchased from Taconic (NY, USA) and C57BL/6J mice were purchased from The Jackson Laboratory (ME, USA). For total body irradiation (TBI), mice were irradiated at the dose rate of 110 cGy/min using a ^137Cs source (Gammacell® 40Exactor, Best Theratronics, Ottawa, Canada). DMOG (dissolved in saline) or saline was administered IP before and after TBI. The mice were given normal water that had undergone reverse osmosis and powdered food (Purina Pico Lab Chow) after TBI. The animals were closely inspected after TBI for ill-health and the moribund animals were sacrificed according to the guidelines in our approved ACUC protocol. The Kaplan-Meier survival curves were plotted for saline-treated and DMOG-treated cohorts. The statistical analysis of the Kaplan-Meier survival curves was performed with Graph Pad Prism Version 5 using Mantel Log-rank test."}, "[3]": {"test_system": "Suv39h1", "format": "cell-based"}, "[4]": {"test_system": "CHD4", "format": "cell-based", "conditions": "MCF-7 cells; CoCl2 200 μM 8 hr, FIG. 8D; DMOG only stated"}, "[5]": {"test_system": "HeLa cells", "experiment": "Control experiment: toxicity of DMOG to the cells over the time course", "format": "cell-based", "conditions": "control experiments to FIG. 2"}, "[6]": {"test_system": "MTA3", "format": "cell-based", "conditions": "MCF-7 cells; CoCl2 200 μM 8 hr, FIG. 8E; DMOG only stated"}, "[7]": {"test_system": "H3K9me3", "experiment": "H3K9me3 immunofluorescent staining in MEFs (FIG. 10A)", "format": "cell-based, mouse", "conditions": "DMOG 1 mM 24 hr", "procedure": "In FIG. 10A MEFs were incubated in either solvent (Control: DMSO) or DMOG (1 mM) for 24 hr. H3K9me3 levels were detected by immunofluorescent staining with antibody to H3K9me3 and co-stained with DAPI to locate nuclear DNA. In FIG. 10B HEK293T cells were transiently transfected with vector or KDM4A and allowed to recover for 30 hrs. Cells were either untreated or incubated with DMOG (1 mM) for 24 hrs. H3K9me3 levels were detected by immunofluorescent staining with antibody to H3K9me3. In FIG. 10C MCF-7 cells were incubated in increasing concentrations of DMOG or CoCl2 (200 μM) for 24 hrs. […] In FIG. 10D MCF-7 cells were incubated in DMOG (1 mM) or CoCl2 (200 μM) for the indicated time. […] In FIG. 10E MCF-7 cells expressing either a non-specific shRNA (shRNA^Con) or shRNA targeting Hif1α (shRNA^Hif1α) were incubated with DMOG or CoCl2 (200 μM) for 24 hrs.\nImmunofluorescence: Cells (on cover slides) were fixed in phosphate-buffered saline (PBS) containing 2% paraformaldehyde. Cells were permeabilized in 0.2% Triton X-100 in PBS for 5mins, and then blocked in fetal bovine serum for 20 min, Primary antibodies were prepared in 10% fetal bovine serum supplemented with 0.2% saponin. After a 1 h incubation with primary antibody, cells were washed three times with 0.2% Tween-20 and incubated for 1 h in secondary antibody (conjugated to either Texas Red or FITC; Santa Cruz Biotechnology, CA). […]"}, "[8]": {"test_system": "Hif1α", "format": "cell-based, mouse"}, "[9]": {"test_system": "MEF cells", "experiment": "Clonogenic cell survival assay after ionizing radiation, MEFs", "format": "cell-based, mouse", "design": "cell survival after exposure to IR (clonogenic): dose or concentration left out as unconfirmed"}, "[10]": {"test_system": "endogenous KDMs", "experiment": "H3K9me3 immunofluorescent staining in vector-transfected HEK293T cells (FIG. 10B)", "format": "cell-based", "conditions": "DMOG 1 mM 24 hrs"}, "[11]": {"test_system": "MTA3", "format": "cell-based", "conditions": "MCF7 cells; CoCl2 200 μM time course, FIG. 8F; DMOG only stated"}, "[12]": {"test_system": "CHD4", "format": "cell-based", "conditions": "MCF7 cells; CoCl2 200 μM time course, FIG. 8F; DMOG only stated"}},
  "data": [
    {"compound": "COC(=O)CNC(=O)C(=O)OC", "note": "[DMOG, dimethyloxalylglycine]", "values": [
      {"measurement": "radioresistance (clonogenic survival) when Hif1α was silenced", "setting": "[1]", "result": "this effect was lost"},
      {"measurement": "survival after TBI", "setting": "[2]; Balb/c mice, FIG. 6B", "result": "significantly improved the survival"},
      {"measurement": "survival after TBI", "setting": "[2]; C57BL/6J mice, FIG. 6A", "result": "significantly improved the survival"},
      {"measurement": "DMOG dependent induction of Suv39h1 in cells lacking Hif1α", "setting": "[3]", "result": "abolished"},
      {"measurement": "expression of the Suv39h1 methyltransferase", "setting": "[3]", "result": "increased expression of the Suv39h1 methyltransferase"},
      {"measurement": "CHD4 mRNA levels", "setting": "[4]", "result": "increased"},
      {"measurement": "toxicity over the time course of the experiment", "setting": "[5]", "result": "did not exhibit significant toxicity"},
      {"measurement": "MTA3 mRNA levels", "setting": "[6]", "result": "increased"},
      {"measurement": "H3K9me3 in cells", "setting": "[7]", "result": "rapidly increased H3K9me3"},
      {"measurement": "ability to increase Hif1α levels in SuvDKO MEFs", "setting": "[8]", "result": "not altered"},
      {"measurement": "cell survival after exposure to IR (clonogenic)", "setting": "[9]; MEF cells incubated with DMOG then irradiated, FIG. 3", "result": "increased cell survival"},
      {"measurement": "radioresistance (clonogenic survival)", "setting": "[9]; MEFs expressing a non-specific shRNA, DMOG 1 mM, FIG. 11A", "result": "increased radioresistance"},
      {"measurement": "radiosensitivity (clonogenic survival)", "setting": "[9]; MEFs, DMOG 1 mM, 1 hr before IR to 24 hr after, FIG. 7C", "result": "significant decrease in radiosensitivity"},
      {"measurement": "protection when added after irradiation (radiation mitigation, clonogenic survival)", "setting": "[9]; MEFs, DMOG 48-72 hours post-irradiation, FIG. 5", "result": "significant protection"},
      {"measurement": "radioresistance (clonogenic survival)", "setting": "[9]; Suv39h1/h2+/+ cells, FIG. 4B", "result": "small, but significant increase in radioresistance"},
      {"measurement": "H3K9me3 methylation in cells expressing vector", "setting": "[10]", "result": "increased H3K9me3 methylation"},
      {"measurement": "MTA3 protein levels", "setting": "[11]", "result": "increased"},
      {"measurement": "CHD4 protein levels", "setting": "[12]", "result": "increased"}
    ]}
  ]
}
